Test results reported in patent US9739791B2, “Methods for predicting and treating myocardial damage” (THE CLEVELAND CLINIC FOUNDATION, priority 2010, dated 2017).

System: infarct size after ischemia reperfusion (LAD ligation)
Assay: LAD ligation/reperfusion, infarct size as percent area at risk after CoQ10 pretreatment
Type: in vivo
Conditions: WT mice; CoQ10 ip 1 mg/kg/day for 3 days prior to ischemia reperfusion; compared to WT controls; p=0.15
Procedure: FIG. 4 is a plot comparing infarct size as a percentage of AAR in WT and ApoAI-null mice given saline or Coenzyme Q10 daily for 3 days prior to ischemia induced by 30 minutes of LAD ligation and 3 hours of reperfusion (data represent mean±SD; n=4-6 per group; *p<0.0001 compared to strain-matched NT control).
All animal protocols were approved by the Animal Research Committee, and all animals were housed in the Association for Assessment and Accreditation of Laboratory Animal Care International-approved animal facility of the Cleveland Clinic. Anterior wall MI (AMT) was performed as recently described (Askari, A. T. et al., J. Exp. Med. 197:615-624, 2003). Briefly, AMI was induced in eight 20- to 25-g male littermate wild-type (C57BL/6J), ApoA1 heterozygote (ApoA1^+/−) or knockout (ApoA1^−/−) mice by ligation of the LAD 7-0 Prolene. Blanching and dysfunction of the anterior wall verified LAD ligation. After 30 minutes of LAD ligation, microsurgical scissors were used to cut the knot in the ligature at the level of the myocardium, and animals subsequently underwent reperfusion for 3 hours. […] Animals were kept on ventilator for the entire 3 hours of reperfusion and subsequently analyzed for area at risk and infarct size using 1% solution of 2,3,5-triphenyltetrazolium chloride (TTC) at 37° C. […]

COC1=C(OC)C(=O)C(C/C=C(\C)CC/C=C(\C)CC/C=C(\C)CC/C=C(\C)CC/C=C(\C)CC/C=C(\C)CC/C=C(\C)CC/C=C(\C)CC/C=C(\C)CCC=C(C)C)=C(C)C1=O [CoQ10, Coenzyme Q10]
decrease in IS/% AAR: non-significant trend
